Measurements from patent publication US12404289B2 (Gilead Sciences, Inc., priority 2020, dated 2025).
Where two headings read alike, the source gives them in different places.

What was measured:
Type in all cases: cell-based
SARS-CoV-2 = SARS-CoV-2 antiviral assay (A549-hACE2, Nano luciferase); conditions: A549-hACE2 cells, SARS-CoV2-Nano, MOI 0.025, 48 h, Table 4, read-out: EC50 SARS CoV2
[1] = system: Respiratory syncytial virus (RSV) strain A2; assay: Hep-2 RSV2 384-well assay (EC50-HEP2-384); conditions: HEp-2 cells, RSV A2, MOI=4, 4 days
[2] = system: Recombinant respiratory syncytial virus expressing the firefly luciferase protein (RSV-Fluc); assay: microbe, parasite or virus in culture; conditions: Table 4
[3] = system: Respiratory syncytial virus (RSV) strain A2; assay: RSV antiviral assay (HEp-2, 96 well); conditions: Table 3
[4] = Severe acute respiratory syndrome coronavirus 2, 48 h
[5] = human respiratory syncytial virus, NHBE, 72 h, read-out: EC50 RSVFluc NHBE 96, NHBE cells, RSV-Fluc, MOI of 0.1, three days, 96 well
[6] = read-out: EC50 RSVFluc NHBE 96, NHBE cells, RSV-Fluc, MOI of 0.1, three days, 96 well
[7] = human respiratory syncytial virus, HEp-2, 96 h, Table 3
[8] = read-out: EC50 RSV HEP2 96, HEp-2 cells, RSV A2, MOI=4, 4 days, 96 well
[9] = human respiratory syncytial virus, HEp-2, 96 h, read-out: EC50 RSV HEP2 96, HEp-2 cells, RSV A2, MOI=4, 4 days, 96 well

Row | SMILES | EC50 (SARS-CoV-2; [4]) [µM] | EC50 [2, 5] [µM] | EC50 (SARS-CoV-2) [µM] | EC50 [2, 6] [µM] | EC50 [3, 9] [µM] | further results
1 | CCOC(=O)[C@H](C)NP(=O)(OC[C@H]1O[C@@](C#N)(c2ccc3c(N)ncnn23)[C@H](OC(=O)C(C)C)[C@@H]1OC(=O)C(C)C)Oc1ccc(C(C)(C)C)cc1 (single isomer, unassigned) [Example 18a] | 0.312 | 0.0222 |  |  |  | EC50 ([1]; human respiratory syncytial virus, HEp-2, 96 h, Table 1): 0.0654 µM
2 | CCOC(=O)[C@H](C)NP(=O)(OC[C@H]1O[C@@](C#N)(c2ccc3c(N)ncnn23)[C@H](OC(=O)C(C)C)[C@@H]1OC(=O)C(C)C)Oc1ccc(C(C)(C)C)cc1 (single isomer, unassigned) [Example 18b] |  |  | 0.332 | 0.0151 |  | EC50 ([1]; Table 1): 0.075 µM
3 | CC(C)C(=O)O[C@H]1[C@@H](OC(=O)C(C)C)[C@](C#N)(c2ccc3c(N)ncnn23)O[C@@H]1COP(=O)(N[C@@H](C)C(=O)OC1CCC1)Oc1ccccc1 (single isomer, unassigned) [Example 21a] |  |  | 0.125 | 0.0374 |  | EC50 ([1]; Table 1): 0.092 µM
4 | CC(C)C(=O)O[C@H]1[C@@H](OC(=O)C(C)C)[C@](C#N)(c2ccc3c(N)ncnn23)O[C@@H]1COP(=O)(N[C@@H](C)C(=O)OC1CCC1)Oc1ccccc1 (single isomer, unassigned) [Example 21b] |  |  | 0.191 | 0.0331 |  | EC50 ([1]; Table 1): 0.0347 µM
5 | C[C@H](NP(=O)(OC[C@H]1O[C@@](C#N)(c2ccc3c(N)ncnn23)[C@H](O)[C@@H]1O)Oc1ccc(C(C)(C)C)cc1)C(=O)OC1CCC1 (single isomer, unassigned) [Example 31a] | 0.0923 | 0.00633 |  |  |  | EC50 [1, 7]: 0.0292 µM
6 | CC(C)C(=O)O[C@H]1[C@@H](OC(=O)C(C)C)[C@](C#N)(c2ccc3c(N)ncnn23)O[C@@H]1COP(=O)(N[C@@H](C)C(=O)OC1CCC1)Oc1ccc(C(C)(C)C)cc1 (single isomer, unassigned) [Example 50a] |  |  | 0.0388 | 0.0275 |  | EC50 [3, 8]: 0.0213 µM
7 | CC(C)C(=O)O[C@H]1[C@@H](OC(=O)C(C)C)[C@](C#N)(c2ccc3c(N)ncnn23)O[C@@H]1COP(=O)(N[C@@H](C)C(=O)OC1CCC1)Oc1ccc(C(C)(C)C)cc1 (single isomer, unassigned) [Example 50b] |  |  | 0.239 | 0.00536 |  | EC50 [3, 8]: 0.00852 µM
8 | CC(C)C(=O)O[C@H]1[C@@H](OC(=O)C(C)C)[C@](C#N)(c2ccc3c(N)ncnn23)O[C@@H]1COP(=O)(N[C@@H](C)C(=O)OC1CCC1)Oc1cccc2ccccc12 (single isomer, unassigned) [Example 55a] | 0.104 |  |  | 0.0199 | 0.00709 | 
9 | CC(C)C(=O)O[C@H]1[C@@H](OC(=O)C(C)C)[C@](C#N)(c2ccc3c(N)ncnn23)O[C@@H]1COP(=O)(N[C@@H](C)C(=O)OC1CCC1)Oc1cccc2ccccc12 (single isomer, unassigned) [Example 55b] |  |  | 0.108 | 0.00612 |  | EC50 [3, 8]: 0.00744 µM
10 | CCC(CC)COC(=O)[C@H](C)NP(=O)(OC[C@H]1O[C@@](C#N)(c2ccc3c(N)ncnn23)[C@H](O)[C@@H]1O)Oc1ccc2ccccc2c1 (single isomer, unassigned) [Intermediate S3-b] |  |  |  |  |  | EC50 [3, 8]: 0.0188 µM; EC50 [1, 7]: 0.068 µM
11 | CC(C)C(=O)O[C@H]1[C@@H](OC(=O)C(C)C)[C@](C#N)(c2ccc3c(N)ncnn23)O[C@@H]1COP(=O)(N[C@@H](C)C(=O)OC1CCC1)Oc1ccc(C2CC2)cc1 (some centres unmarked) [Example 52a] | 0.0645 | 0.0208 |  |  | 0.0205 | 
12 | C[C@H](NP(=O)(OC[C@H]1O[C@@](C#N)(c2ccc3c(N)ncnn23)[C@H](O)[C@@H]1O)Oc1ccc(C(C)(C)C)cc1)C(=O)OCCC(C)(C)C (stereo partly drawn) [Example 61, 3,3-dimethylbutyl (2S)-2-[[[(2R,3S,4R,5R)-5-(4-aminopyrrolo[2,1-f][1,2,4]triazin-7-yl)-5-cyano-3,4-dihydroxy-tetrahydrofuran-2-yl]methoxy-(4-tert-butylphenoxy)phosphoryl]amino]propanoate] |  |  |  |  | 0.0367 | EC50 [1, 7]: 0.0724 µM
13 | C[C@H](NP(=O)(OC[C@H]1O[C@@](C#N)(c2ccc3c(N)ncnn23)[C@H](O)[C@@H]1O)Oc1ccc(C(C)(C)C)cc1)C(=O)OC1CC2(CCC2)C1 (stereo partly drawn) [Example 65, spiro[3.3]heptan-2-yl (2S)-2-[[[(2R,3S,4R,5R)-5-(4-aminopyrrolo[2,1-f][1,2,4]triazin-7-yl)-5-cyano-3,4-dihydroxy-tetrahydrofuran-2-yl]methoxy-(4-tert-butylphenoxy)phosphoryl]amino]propanoate] |  |  | 0.265 | 0.00324 | 0.336 | 
14 | CCOC(=O)[C@H](C)NP(=O)(OC[C@H]1O[C@@](C#N)(c2ccc3c(N)ncnn23)[C@H](OC(=O)C(C)C)[C@@H]1OC(=O)C(C)C)Oc1cccc2ccccc12 (stereo partly drawn) [Example 67, [(2R,3R,4R,5R)-5-(4-aminopyrrolo[2,1-f][1,2,4]triazin-7-yl)-5-cyano-2-[[[[(1S)-2-ethoxy-1-methyl-2-oxo-ethyl]amino]-(1-naphthyloxy)phosphoryl]oxymethyl]-4-(2-methylpropanoyloxy)tetrahydrofuran-3-yl] 2-methylpropanoate] | 0.0272 | 0.00872 |  |  | 0.018 | 
15 | CC(=O)O[C@H]1[C@@H](OC(C)=O)[C@](C#N)(c2ccc3c(N)ncnn23)O[C@@H]1COP(=O)(N[C@@H](C)C(=O)OC1CC2(CCC2)C1)Oc1ccc(C(C)(C)C)cc1 (stereo partly drawn) [Example 80, Spiro[3.3]heptan-2-yl (2S)-2-[[(4-tert-butylphenoxy)-[[(2R,3R,4R,5R)-3,4-diacetoxy-5-(4-aminopyrrolo[2,1-f][1,2,4]triazin-7-yl)-5-cyano-tetrahydrofuran-2-yl]methoxy]phosphoryl]amino]propanoate] |  |  | 0.31 | 0.0165 | 0.0169 | 
16 | CC(C)C(=O)O[C@H]1[C@@H](OC(=O)C(C)C)[C@](C#N)(c2ccc3c(N)ncnn23)O[C@@H]1COP(=O)(N[C@@H](C)C(=O)OC1CCOCC1)Oc1ccc(C(C)(C)C)cc1 (stereo partly drawn) [Example 90, [(2R,3R,4R,5R)-5-(4-aminopyrrolo[2,1-f][1,2,4]triazin-7-yl)-2-[[(4-tert-butylphenoxy)-[[(1S)-1-methyl-2-oxo-2-tetrahydropyran-4-yloxy-ethyl]amino]phosphoryl]oxymethyl]-5-cyano-4-(2-methylpropanoyloxy)tetrahydrofuran-3-yl] 2-methylpropanoate] |  |  |  |  | 0.0204 | EC50 [1, 7]: 0.124 µM
17 | COC(C)(C)COC(=O)[C@H](C)NP(=O)(OC[C@H]1O[C@@](C#N)(c2ccc3c(N)ncnn23)[C@H](OC(=O)C(C)C)[C@@H]1OC(=O)C(C)C)Oc1ccc(C(C)(C)C)cc1 (stereo partly drawn) [Example 116, (2R,3R,4R,5R)-2-(4-aminopyrrolo[2,1-f][1,2,4]triazin-7-yl)-5-((((4-(tert-butyl)phenoxy)(((S)-1-(2-methoxy-2-methylpropoxy)-1-oxopropan-2-yl)amino)phosphoryl)oxy)methyl)-2-cyanotetrahydrofuran-3,4-diyl bis(2-methylpropanoate)] | 0.056 | 0.025 |  |  | 0.0112 | 
18 | CC(C)C(=O)O[C@H]1[C@@H](OC(=O)C(C)C)[C@](C#N)(c2ccc3c(N)ncnn23)O[C@@H]1COP(=O)(N[C@@H](C)C(=O)OCC1CCC1)Oc1ccccc1 (stereo partly drawn) [Example 117, (2R,3R,4R,5R)-2-(4-aminopyrrolo[2,1-f][1,2,4]triazin-7-yl)-2-cyano-5-((((((S)-1-(cyclobutylmethoxy)-1-oxopropan-2-yl)amino)(phenoxy)phosphoryl)oxy)methyl)tetrahydrofuran-3,4-diyl bis(2-methylpropanoate)] | 0.192 | 0.0221 |  |  | 0.011 | 
19 | CC(C)COC(=O)[C@H](C)NP(=O)(OC[C@H]1O[C@@](C#N)(c2ccc3c(N)ncnn23)[C@H](OC(=O)C(C)C)[C@@H]1OC(=O)C(C)C)Oc1ccc(C(C)(C)C)cc1 (stereo partly drawn) [Example 122, (2R,3R,4R,5R)-2-(4-aminopyrrolo[2,1-f][1,2,4]triazin-7-yl)-5-((((4-(tert-butyl)phenoxy)(((S)-1-isobutoxy-1-oxopropan-2-yl)amino)phosphoryl)oxy)methyl)-2-cyanotetrahydrofuran-3,4-diyl bis(2-methylpropanoate)] | 0.167 | 0.00873 |  |  | 0.0164 | 
20 | CCC(C)(C)COC(=O)[C@H](C)NP(=O)(OC[C@H]1O[C@@](C#N)(c2ccc3c(N)ncnn23)[C@H](OC(=O)C(C)C)[C@@H]1OC(=O)C(C)C)Oc1ccc(C(C)(C)C)cc1 (stereo partly drawn) [Example 126, (2R,3R,4R,5R)-2-(4-aminopyrrolo[2,1-f][1,2,4]triazin-7-yl)-5-((((4-(tert-butyl)phenoxy)(((S)-1-(2,2-dimethylbutoxy)-1-oxopropan-2-yl)amino)phosphoryl)oxy)methyl)-2-cyanotetrahydrofuran-3,4-diyl bis(2-methylpropanoate)] | 0.0774 |  |  |  | 0.017 | EC50 [1, 7]: 0.116 µM
21 | CCC(CC)COC(=O)[C@H](C)NP(=O)(OC[C@H]1O[C@@](C#N)(c2ccc3c(N)ncnn23)[C@H](O)[C@@H]1O)Oc1ccc2ccccc2c1 (stereo partly drawn) [Intermediate S3, 2-ethylbutyl ((((2R,3S,4R,5R)-5-(4-aminopyrrolo[2,1-f][1,2,4]triazin-7-yl)-5-cyano-3,4-dihydroxytetrahydrofuran-2-yl)methoxy)(naphthalen-2-yloxy)phosphoryl)-L-alaninate] | 0.113 | 0.00551 |  |  |  | 
